Data set [1] concerns human corneal endothelial cells. Put plainly: Ki67 immunostaining of cultured human corneal endothelial cells. The data set is classed as cell-based. The note with it: 10 μM; after 3 days; vs control. Here is the method: *Human corneal endothelial cells (HCEC, where the cells were obtained and culturing method thereof): HCEC was cultured as follows. In short, Descemet's membrane including corneal endothelial cells was peeled off from a corneal for research purchased from the Seattle Eye Bank, and the corneal endothelial cells were mechanically peeled off with a basal membrane. After collagenase (ROCHE catalog No: 10 103 586 001) was used to detach and collect the corneal endothelial cell from the basal membrane (typically 1 mg/mL collagenase A (Roche Applied Science) was used for treatment at 37° C. for 2 hours), the cells were subjected to primary culture. The medium used was Opti-MEM I Reduced-Serum Medium, Liquid (INVITROGEN catalog No.: 31985-070) to which 8% fetal bovine serum (FBS) (BIOWEST, catalog No.: S1820-500), […] of CaCl2.2H2O (SIGMA catalog No.: C7902-500G), 0.08% of chondroitin sulfate (SIGMA catalog No.: C9819-5G), 20 μg/ml of ascorbic acid (SIGMA catalog No.: A4544-25G), 50 μg/ml of gentamicin (INVITROGEN catalog No.: 15710-064) and 5 ng/ml of EGF (INVITROGEN catalog No.: PHG0311) were added and acclimated for a 3T3 feeder cell. […] Immunostaining was applied to the cells for observation with a fluorescence microscope. […]

For data set [2] the following is noted: cited from earlier work.
For data set [3], the system named is human corneal endothelial cells. Put plainly: UV-induced cell death, live cell count. The data set is classed as cell-based. The following applies: UV 100 J/m^2; 10 μM; 12 hours after UV irradiation; vs UV only. Here is the method: In order to study the effect of a p38 MAP kinase signal inhibition on cell death, cultured human corneal endothelial cells were stimulated with ultraviolet rays (UV) of 100 J/m^2 to induce cell death to study the effect of SB203580 (used at 10 μM). The number of cells was counted for the study.

Results on one molecule are retold here after patent publication US10813920B2, “Drug for treating corneal endothelium by promoting cell proliferation or inhibiting cell damage” (THE DOSHISHA, priority 2013, dated 2020).

`C[S+]([O-])c1ccc(-c2nc(-c3ccncc3)c(-c3ccc(F)cc3)[nH]2)cc1` (stereo not shown) [SB203580, 4-(4-fluorophenyl)-2-(4-methylsulfinylphenyl)-5-(4-pyridyl)-1H-imidazole]: the “Expression of Ki67 (Ki67 positive cells)” value in data set [1] is on record as “significantly more cells”. Further, the solubility in methanol entry in data set [2] (methanol) is “soluble”. Also, the “solubility in water (pharmacopoeia class)” value in data set [2] (water) was “difficult to dissolve (100 mL or greater and less than 1000 mL)”. Further, in data set [3], the “number of live cells after UV irradiation (percentage to control)” value is on record as “significantly increases”.
